The results in this text go back to ChEMBL document CHEMBL1123527 (J Med Chem, 1986).

Molecules are shown by their SMILES. ≈ marks a conversion by molar mass, not a printed value.

Data set [1] relates to L1210. As to the kind of experiment: cells. The note with it: Mus musculus.
The subject of data set [2] is L1210. As to the kind of experiment: Compound was evaluated for the influx (Km) mediated transport with respect to L1210 cells. It is filed as functional, cell-based. The following applies: Mus musculus.
Data set [3] deals with L1210. Put plainly: Compound was evaluated for the efflux (K) mediated transport with respect to L1210 cells. The following applies: Mus musculus. It is filed as functional, cell-based.
The target in the next data set is T1, Dihydrofolate reductase (Mus musculus, UniProt P00375).
T1 sequence (P00375 whole entry): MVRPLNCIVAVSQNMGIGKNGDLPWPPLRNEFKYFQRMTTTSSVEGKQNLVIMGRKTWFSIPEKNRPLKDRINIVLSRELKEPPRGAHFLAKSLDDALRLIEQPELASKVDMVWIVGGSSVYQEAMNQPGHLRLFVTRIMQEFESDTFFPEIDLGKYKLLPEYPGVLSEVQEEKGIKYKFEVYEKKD
As to the kind of experiment: Compound was evaluated for inhibitory effect on dihydrofolate reductase (DHFR) from L1210 cells at Inhibitory constant (n=3). It is filed as cell-based.

Data set [4] deals with P388. Put plainly: (§1) Compound at a optimum dose level of 0.5 mg/kg was evaluated in vivo against Murine P388/0 […] cells (1 X 10E6 ip implant). The class given is organism-based. The arrangement: dose 0.5 mg/kg, route intraperitoneal. The following applies: mouse.
Data set [5] has as its system P388. The data set is described as §1. The class given is functional, Mus musculus. The note with it: route intraperitoneal.
For data set [6], the system named is L1210. As to the kind of experiment: Compound was evaluated for rate of anabolism to polyglutamate accumulation in L1210 cells. It is filed as functional, Mus musculus.
Data set [7] relates to P388. As to the kind of experiment: Compound at a optimum dose level of 0.5 mg/kg was evaluated in vivo against Murine P388/MTX resistant cells (1 X 10E6 ip implant). The note with it: route intraperitoneal. It is filed as functional, Mus musculus.
Data set [8] concerns Enterococcus faecium. Put plainly: Compound was evaluated for inhibitory effect on growth of Streptococcus faecium ATCC 8043. It is filed as functional, organism-based.
For data set [9], the system named is Lacticaseibacillus casei. As to the kind of experiment: Compound was evaluated for inhibitory effect on growth of Lactobacillus casei MTX resistant. The class given is functional, organism-based.
Data set [10] deals with P388. As to the kind of experiment: Compound at a optimum dose level of 2 mg/kg was evaluated in vivo against Murine P388/MTX resistant cells (1 X 10E6 ip implant). It is filed as functional, Mus musculus. The note with it: route intraperitoneal.
Data set [11] has as its system Enterococcus faecium. Put plainly: Compound was evaluated for inhibitory effect on growth of Streptococcus faecium MTX resistant. It is filed as functional, organism-based.
The target in data set [12] is T2, Thymidylate synthase (Lactobacillus casei, UniProt P00469).
T2 sequence (P00469 whole entry): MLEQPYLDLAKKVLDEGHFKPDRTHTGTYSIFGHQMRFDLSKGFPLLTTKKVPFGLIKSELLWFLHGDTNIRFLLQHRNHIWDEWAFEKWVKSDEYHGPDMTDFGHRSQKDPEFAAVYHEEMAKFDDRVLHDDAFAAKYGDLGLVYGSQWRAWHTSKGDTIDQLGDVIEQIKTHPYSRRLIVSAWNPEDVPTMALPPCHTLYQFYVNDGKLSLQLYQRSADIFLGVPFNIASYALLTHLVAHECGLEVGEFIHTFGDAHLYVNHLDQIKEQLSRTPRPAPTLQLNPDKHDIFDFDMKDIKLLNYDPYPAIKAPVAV
Put plainly: (§2) Compound was evaluated for inhibitory effect on the thymidylate synthase (TS) of Lactobacillus casei. The arrangement: species or system Lacticaseibacillus casei.

The test system of data set [13] is Lacticaseibacillus casei. Put plainly: Compound was evaluated for inhibitory effect on growth of Lactobacillus casei ATCC 7469. It is filed as functional, organism-based.
The test system of data set [14] is L1210. As to the kind of experiment: Compound was evaluated for the influx (Km) mediated transport with respect to L1210 cells. The class given is functional, cell-based. The following applies: Mus musculus.
Data set [15] deals with T2, Thymidylate synthase. The data set is described as §2. It is filed as functional, Lacticaseibacillus casei.
Setting [16] is: Lacticaseibacillus casei, read-out: IC50.

Turning to `CCN(Cc1cnc2nc(N)nc(N)c2c1C)c1ccc(C(=O)NC(CCC(=O)O)C(=O)O)cc1` (stereo not given), the IC50 in the data set on L1210 [1] is 0.26 nM. Besides, in the data set on L1210 [2], the Michaelis-Menten constant (Km) was 3.3 µM. Moreover, the K with L1210 [3] worked out at 0.29 min⁻¹. On Dihydrofolate reductase, the affinity corresponds to a Ki of 0.00264 nM.

Take `Cc1c(CNc2ccc(C(=O)NC(CCC(=O)O)C(=O)O)cc2)cnc2nc(N)nc(N)c12` (stereo not given): the T/C with P388 [4] is 151%. The Survival time stood at 16.4 days in the data set with P388 [5] and 20.8 days in the data set on P388 [7]. Besides, in the data set with L1210 [1], 0.13 nM corresponded to half-maximal inhibition (IC50). The Km in the data set with L1210 [2] was determined as 1.2 µM. The Rate in the data set with L1210 [6] is recorded as 98.3 pM min-1 (g dry weight)-1. In the data set on L1210 [3], this compound returned a K of 0.26 min⁻¹. Further, the inhibition constant Ki on Dihydrofolate reductase amounted to 0.00293 nM.

In turn, `CN(Cc1cnc2nc(N)nc(N)c2n1)c1ccc(C(=O)N[C@@H](CCC(=O)O)C(=O)O)cc1` [METHOTREXATE] registered a T/C with P388 [4] of 182%. Also, the IC50 in the data set on Enterococcus faecium [8] was 0.26 ng/mL (≈ 0.000572 µM); with Lacticaseibacillus casei [9], more than 500000 ng/mL; with Enterococcus faecium [11], 3000 ng/mL (≈ 6.6 µM). Moreover, the Survival time with P388 [5] turned out to be 19.7 days; with P388 [10] it was 20.3 days. The Km with L1210 [2] came out at 3.3 µM. The compound further gave a K in the data set with L1210 [3] of 0.33 min⁻¹.

For `Cc1c(CN(C)c2ccc(C(=O)NC(CCC(=O)O)C(=O)O)cc2)cnc2nc(N)nc(O)c12` (stereo not given), the 50% inhibitory concentration (IC50) in the data set on Enterococcus faecium [8] was 30 ng/mL (≈ 0.064 µM); with Lacticaseibacillus casei [9] (setting [16]), more than 10000 ng/mL; with Enterococcus faecium [11], more than 10000 ng/mL; against Thymidylate synthase [12], 2.77 nM; in the data set with Lacticaseibacillus casei [13], 4.6 ng/mL (≈ 0.00982 µM).

In the data set on P388 [4], `Nc1nc(N)c2cc(CNc3ccc(C(=O)NC(CCC(=O)O)C(=O)O)cc3)cnc2n1` (stereo not given) yielded a T/C of 146%. For the same compound, the Survival time in the data set with P388 [5] was 15.8 days; with P388 [10] it was 21.8 days. Besides, the IC50 with L1210 [1] was 0.63 nM. For the same compound, the Km in the data set with L1210 [2] worked out at 1.1 µM. The Rate in the data set with L1210 [6] is reported as 84.2 pM min-1 (g dry weight)-1. Also, the K with L1210 [3] was 0.3 min⁻¹. This compound returned an inhibition constant (Ki) on Dihydrofolate reductase of 0.00365 nM.

`CN(Cc1cnc2nc(N)nc(N)c2c1)c1ccc(C(=O)NC(CCC(=O)O)C(=O)O)cc1` (stereo not given) showed a T/C in the data set with P388 [4] of 166%. Moreover, the Survival time with P388 [5] is 18 days; in the data set with P388 [10], 20.3 days. The IC50 in the data set with L1210 [1] amounted to 2.85 nM. Also, the Michaelis-Menten constant (Km) in the data set on L1210 [14] was 4 µM. The Rate in the data set with L1210 [6] is 48.8 pM min-1 (g dry weight)-1. The same compound had a K with L1210 [3] of 0.28 min⁻¹. The compound also yielded a Ki on Dihydrofolate reductase of 0.00526 nM.

Regarding `Nc1nc(N)c2nc(CNc3ccc(C(=O)N[C@@H](CCC(=O)O)C(=O)O)cc3)cnc2n1` [AMINOPTERIN], the Km with L1210 [2] amounted to 1.2 µM. The Rate in the data set on L1210 [6] is listed as 165 pM min-1 (g dry weight)-1. Moreover, the K in the data set with L1210 [3] came out at 0.31 min⁻¹. The inhibition constant (Ki) on Dihydrofolate reductase amounted to 0.00355 nM.

Take `CCOC(=O)CCC(NC(=O)c1ccc(NCc2cnc3nc(N)nc(N)c3c2)cc1)C(=O)OCC` (stereo not given): in the data set on P388 [4], the T/C was 151%. Besides, the Survival time in the data set with P388 [5] was 16.2 days; with P388 [10] it was 20.8 days.

For `Nc1nc(O)c2cc(CNc3ccc(C(=O)NC(CCC(=O)O)C(=O)O)cc3)cnc2n1` (stereo not given), the IC50 at Thymidylate synthase [15] was 1700 nM; with Enterococcus faecium [8] it was 0.09 ng/mL (≈ 0.000204 µM); with Lacticaseibacillus casei [9] (setting [16]), 3500 ng/mL (≈ 7.95 µM); in the data set on Enterococcus faecium [11], 49 ng/mL (≈ 0.111 µM); with Lacticaseibacillus casei [13], 0.054 ng/mL (≈ 0.000123 µM).

Turning to `Cc1c(CNc2ccc(C(=O)NC(CCC(=O)O)C(=O)O)cc2)cnc2nc(N)nc(O)c12` (stereo not given), the IC50 is 380 ng/mL (≈ 0.836 µM) with Enterococcus faecium [8], more than 10000 ng/mL in the data set on Lacticaseibacillus casei [9] (setting [16]), more than 10000 ng/mL in the data set with Enterococcus faecium [11] and 0.57 ng/mL (≈ 0.00125 µM) with Lacticaseibacillus casei [13].

In the data set on P388 [4], `Cc1c(CN(C)c2ccc(C(=O)NC(CCC(=O)O)C(=O)O)cc2)cnc2nc(N)nc(N)c12` (stereo not given) came in with a T/C of 182%. The Survival time in the data set on P388 [5] was 19.7 days; in the data set on P388 [10] it was 20.8 days. This compound also showed a half-maximal inhibitory concentration (IC50) in the data set with L1210 [1] of 0.24 nM. Further, in the data set on L1210 [2], the Michaelis-Menten constant (Km) worked out at 3.2 µM. The Rate in the data set on L1210 [6] is on record as 42.9 pM min-1 (g dry weight)-1. This compound also displayed a K with L1210 [3] of 0.31 min⁻¹. The same compound came in with a Ki at Dihydrofolate reductase of 0.00212 nM.
